± gives the uncertainty stated by the source.
Assay: xn = mol fraction of the nth substance listed

C1CCOC1 + C1CCCCC1
Conditions	viscosity [mPa·s]
298.15 K, 101.3 kPa, x2 = 0.1002	0.4906 ± 0.0047
298.15 K, 101.3 kPa, x2 = 0.1973	0.5151 ± 0.0048
298.15 K, 101.3 kPa, x2 = 0.2946	0.5406 ± 0.005
298.15 K, 101.3 kPa, x2 = 0.3963	0.5689 ± 0.0052
298.15 K, 101.3 kPa, x2 = 0.5012	0.6048 ± 0.0055
298.15 K, 101.3 kPa, x2 = 0.5961	0.6424 ± 0.0057
298.15 K, 101.3 kPa, x2 = 0.7009	0.6906 ± 0.0061
298.15 K, 101.3 kPa, x2 = 0.906	0.8152 ± 0.0071
303.15 K, 101.33 kPa, x1 = 0.0954	0.751 ± 0.007
303.15 K, 101.33 kPa, x1 = 0.1961	0.691 ± 0.006
303.15 K, 101.33 kPa, x1 = 0.3067	0.639 ± 0.006
303.15 K, 101.33 kPa, x1 = 0.4023	0.6 ± 0.005
303.15 K, 101.33 kPa, x1 = 0.5059	0.562 ± 0.005
303.15 K, 101.33 kPa, x1 = 0.6054	0.533 ± 0.005
303.15 K, 101.33 kPa, x1 = 0.704	0.505 ± 0.005
303.15 K, 101.33 kPa, x1 = 0.8065	0.478 ± 0.004
303.15 K, 101.33 kPa, x1 = 0.8987	0.457 ± 0.004
313.15 K, 101.3 kPa, x2 = 0.1002	0.4186 ± 0.0042
313.15 K, 101.3 kPa, x2 = 0.1973	0.4356 ± 0.0043
313.15 K, 101.3 kPa, x2 = 0.2946	0.4542 ± 0.0044
313.15 K, 101.3 kPa, x2 = 0.3963	0.4773 ± 0.0046
313.15 K, 101.3 kPa, x2 = 0.5012	0.5037 ± 0.0048
313.15 K, 101.3 kPa, x2 = 0.5961	0.5305 ± 0.005
313.15 K, 101.3 kPa, x2 = 0.7009	0.5648 ± 0.0052
313.15 K, 101.3 kPa, x2 = 0.906	0.6505 ± 0.006

CC(C)=O + C1CCCCC1
viscosity [mPa·s], 101.33 kPa
Conditions	293.15 K	298.15 K	303.15 K	307.35 K
x1 = 0.091	–	–	–	0.662 ± 0.011
x1 = 0.3116	–	–	–	0.512 ± 0.0093
x1 = 0.3949	–	–	–	0.461 ± 0.0089
x1 = 0.4589	–	–	–	0.431 ± 0.0087
x1 = 0.5299	–	–	–	0.402 ± 0.0084
x1 = 0.7897	–	–	–	0.323 ± 0.0078
x2 = 0.049	0.329 ± 0.007	0.313 ± 0.006	0.299 ± 0.006	–
x2 = 0.0917	0.336 ± 0.007	0.32 ± 0.007	0.305 ± 0.006	–
x2 = 0.1959	0.361 ± 0.007	0.343 ± 0.007	0.326 ± 0.007	–
x2 = 0.2889	0.392 ± 0.008	0.371 ± 0.007	0.352 ± 0.007	–
x2 = 0.4092	0.443 ± 0.008	0.417 ± 0.008	0.394 ± 0.008	–
x2 = 0.5009	0.486 ± 0.009	0.456 ± 0.008	0.429 ± 0.008	–
x2 = 0.5984	0.544 ± 0.01	0.509 ± 0.009	0.477 ± 0.009	–
x2 = 0.7007	0.621 ± 0.011	0.578 ± 0.01	0.54 ± 0.01	–
x2 = 0.8046	0.7 ± 0.012	0.65 ± 0.011	0.606 ± 0.01	–
x2 = 0.9051	0.818 ± 0.013	0.756 ± 0.013	0.701 ± 0.012	–
x2 = 0.958	0.895 ± 0.015	0.829 ± 0.014	0.762 ± 0.013	–

CCCc1ccccc1 + C1CCCCC1
303.15 K, 101 kPa
Conditions	viscosity [mPa·s]
x2 = 0.1018	0.7449 ± 0.0048
x2 = 0.2046	0.7318 ± 0.0048
x2 = 0.3024	0.7218 ± 0.0047
x2 = 0.3975	0.7149 ± 0.0047
x2 = 0.5018	0.7144 ± 0.0047
x2 = 0.6007	0.716 ± 0.0047
x2 = 0.6984	0.7272 ± 0.0048
x2 = 0.7974	0.749 ± 0.0049
x2 = 0.9039	0.7828 ± 0.005

COc1ccccc1 + C1CCCCC1
viscosity [mPa·s]
Conditions	298.15 K	303.15 K	308.15 K	313.15 K
101 kPa, x1 = 0.1016	0.8187 ± 0.021	0.7586 ± 0.02	0.7009 ± 0.018	0.6496 ± 0.017
101 kPa, x1 = 0.1993	0.7856 ± 0.02	0.7308 ± 0.019	0.68 ± 0.018	0.6314 ± 0.016
101 kPa, x1 = 0.3005	0.77 ± 0.02	0.7174 ± 0.019	0.668 ± 0.017	0.6223 ± 0.016
101 kPa, x1 = 0.3997	0.7696 ± 0.02	0.7169 ± 0.019	0.6674 ± 0.017	0.6228 ± 0.016
101 kPa, x1 = 0.5014	0.7849 ± 0.02	0.7317 ± 0.019	0.6829 ± 0.018	0.637 ± 0.017
101 kPa, x1 = 0.6014	0.803 ± 0.021	0.7509 ± 0.019	0.7001 ± 0.018	0.6546 ± 0.017
101 kPa, x1 = 0.7043	0.8378 ± 0.022	0.7843 ± 0.02	0.7318 ± 0.019	0.6823 ± 0.018
101 kPa, x1 = 0.8	0.8834 ± 0.023	0.8216 ± 0.021	0.7693 ± 0.02	0.7163 ± 0.019
101 kPa, x1 = 0.8992	0.9338 ± 0.024	0.87 ± 0.023	0.8092 ± 0.021	0.7511 ± 0.019
101.3 kPa, x1 = 0.0224	–	0.799 ± 0.013	–	–
101.3 kPa, x1 = 0.0385	–	0.783 ± 0.013	–	–
101.3 kPa, x1 = 0.0614	–	0.773 ± 0.013	–	–
101.3 kPa, x1 = 0.4829	–	0.708 ± 0.012	–	–
101.3 kPa, x1 = 0.5172	–	0.714 ± 0.012	–	–
101.3 kPa, x1 = 0.5409	–	0.72 ± 0.012	–	–
101.3 kPa, x1 = 0.5731	–	0.729 ± 0.012	–	–
101.3 kPa, x1 = 0.7744	–	0.792 ± 0.013	–	–
101.3 kPa, x1 = 0.8952	–	0.846 ± 0.014	–	–
101.3 kPa, x1 = 0.9478	–	0.884 ± 0.014	–	–

CC1COC(=O)O1 (stereo not drawn) + C1CCOC1
viscosity [mPa·s]
Conditions	298.15 K	308.15 K	318.15 K
101 kPa, x2 = 0.2	1.7 ± 0.02	–	–
101 kPa, x2 = 0.6	0.862 ± 0.008	–	–
101.33 kPa, x2 = 0.0524	2.227 ± 0.017	1.858 ± 0.014	1.589 ± 0.012
101.33 kPa, x2 = 0.1036	2.023 ± 0.015	1.709 ± 0.013	1.459 ± 0.011
101.33 kPa, x2 = 0.1429	1.87 ± 0.014	1.598 ± 0.012	1.373 ± 0.01
101.33 kPa, x2 = 0.2064	1.674 ± 0.012	1.432 ± 0.01	1.239 ± 0.0092
101.33 kPa, x2 = 0.2431	1.567 ± 0.011	1.351 ± 0.0099	1.167 ± 0.0086
101.33 kPa, x2 = 0.3083	1.393 ± 0.01	1.208 ± 0.0088	1.057 ± 0.0078
101.33 kPa, x2 = 0.3478	1.303 ± 0.0093	1.133 ± 0.0082	0.992 ± 0.0073
101.33 kPa, x2 = 0.4095	1.171 ± 0.0083	1.025 ± 0.0074	–
101.33 kPa, x2 = 0.5098	–	0.8753 ± 0.0063	0.7782 ± 0.0057
101.33 kPa, x2 = 0.5621	–	0.8044 ± 0.0058	0.7222 ± 0.0053
101.33 kPa, x2 = 0.6094	0.8417 ± 0.006	0.7503 ± 0.0054	0.6719 ± 0.0049
101.33 kPa, x2 = 0.6479	0.7836 ± 0.0056	0.7016 ± 0.0051	0.6343 ± 0.0047
101.33 kPa, x2 = 0.7082	0.7171 ± 0.0051	0.6445 ± 0.0047	0.5827 ± 0.0043
101.33 kPa, x2 = 0.7635	0.6549 ± 0.0047	0.596 ± 0.0044	–
101.33 kPa, x2 = 0.8062	0.6195 ± 0.0045	–	0.5098 ± 0.0038
101.33 kPa, x2 = 0.8388	0.5831 ± 0.0042	0.5361 ± 0.004	0.4805 ± 0.0037
101.33 kPa, x2 = 0.9035	0.5357 ± 0.0039	0.4872 ± 0.0037	0.4425 ± 0.0034
101.33 kPa, x2 = 0.9631	0.485 ± 0.0036	0.4449 ± 0.0034	0.404 ± 0.0032

CCCc1ccccc1 + C1CCOC1
303.15 K, 101.33 kPa
Conditions	viscosity [mPa·s]
x2 = 0.1005	0.732 ± 0.006
x2 = 0.199	0.709 ± 0.006
x2 = 0.3031	0.682 ± 0.006
x2 = 0.4019	0.656 ± 0.006
x2 = 0.4983	0.63 ± 0.006
x2 = 0.6024	0.596 ± 0.005
x2 = 0.7022	0.561 ± 0.005
x2 = 0.8014	0.525 ± 0.005
x2 = 0.8964	0.485 ± 0.005

C1CCOC1 + C1COCCO1
Conditions	viscosity [mPa·s]
298.15 K, 101 kPa, x2 = 0.5	0.6797 ± 0.018

CC1COC(=O)O1 (stereo not drawn) + C1COCCO1
303.15 K, 101.3 kPa
Conditions	viscosity [mPa·s]
x1 = 0.1007	1.1 ± 0.018
x1 = 0.2012	1.184 ± 0.02
x1 = 0.3015	1.273 ± 0.021
x1 = 0.4017	1.369 ± 0.023
x1 = 0.5017	1.472 ± 0.024
x1 = 0.6015	1.582 ± 0.026
x1 = 0.7018	1.706 ± 0.028
x1 = 0.8014	1.844 ± 0.03
x1 = 0.9008	1.992 ± 0.032

CCCc1ccccc1 + C1COCCO1
303.15 K, 101.3 kPa
Conditions	viscosity [mPa·s]
x2 = 0.1061	0.7763 ± 0.005
x2 = 0.1984	0.8007 ± 0.0052
x2 = 0.2968	0.8298 ± 0.0053
x2 = 0.399	0.8589 ± 0.0055
x2 = 0.4945	0.8922 ± 0.0057
x2 = 0.5985	0.9278 ± 0.0059
x2 = 0.7003	0.9648 ± 0.0061
x2 = 0.8026	1.005 ± 0.0063
x2 = 0.9025	1.045 ± 0.0065
